According to patent US9765075B2, “Substituted bridged urea analogs as sirtuin modulators” (GLAXOSMITHKLINE LLC, priority 2013, dated 2017):
Positions count from the first letter of the chain named. Counter-ions that a name gives are not always drawn.

Columns and labels:
Assay in all cases: SIRT1 inhibition assay, OAcADPr mass spectrometry
Type in all cases: biochemical
full-length hSIRT1 V224A = target: T1, full-length hSIRT1 V224A (Homo sapiens, UniProt Q96EB6, V224A)
T1 construct: The following point mutants of full-length hSIRT1 were generated; His6 (C); made in house
T1 sequence (Q96EB6 1-747 V224A): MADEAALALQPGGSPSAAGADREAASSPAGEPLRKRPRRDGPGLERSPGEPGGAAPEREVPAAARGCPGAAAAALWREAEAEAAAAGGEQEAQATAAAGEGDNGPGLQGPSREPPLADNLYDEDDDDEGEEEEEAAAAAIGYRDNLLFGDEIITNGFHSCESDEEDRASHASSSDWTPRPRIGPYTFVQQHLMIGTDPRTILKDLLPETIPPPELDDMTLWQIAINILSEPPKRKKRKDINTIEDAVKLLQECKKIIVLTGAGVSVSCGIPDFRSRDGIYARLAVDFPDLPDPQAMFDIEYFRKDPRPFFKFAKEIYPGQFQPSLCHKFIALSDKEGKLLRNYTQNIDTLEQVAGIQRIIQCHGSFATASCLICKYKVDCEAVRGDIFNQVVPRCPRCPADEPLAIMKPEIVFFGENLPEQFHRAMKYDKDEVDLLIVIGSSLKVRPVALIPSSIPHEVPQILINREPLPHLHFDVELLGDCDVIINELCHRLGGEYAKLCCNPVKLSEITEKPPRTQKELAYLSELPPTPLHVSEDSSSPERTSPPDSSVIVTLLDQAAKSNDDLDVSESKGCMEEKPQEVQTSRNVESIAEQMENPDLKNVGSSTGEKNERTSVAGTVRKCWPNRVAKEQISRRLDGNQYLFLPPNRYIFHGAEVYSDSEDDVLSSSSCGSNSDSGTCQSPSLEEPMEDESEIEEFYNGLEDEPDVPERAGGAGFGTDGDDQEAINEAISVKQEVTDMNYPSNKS
Procedure: (§1) SIRT1 activation and inhibition assays were run in reaction buffer with 0.05% BSA at 25° C. and analyzed using the OAcADPr assay. Enzyme and compound were pre-incubated for 20 minutes before addition of substrates.

full-length hSIRT1 E230Q = target: T2, full-length hSIRT1 E230Q (Homo sapiens, UniProt Q96EB6, E230Q)
T2 construct: His6 (C); made in house
T2 sequence (Q96EB6 1-747 E230Q): T1 sequence (Q96EB6 1-747 V224A) with A224V, E230Q
Procedure: as §1

full-length hSIRT1 I223R = target: T3, full-length hSIRT1 I223R (Homo sapiens, UniProt Q96EB6, I223R)
T3 construct: made in house
T3 sequence (Q96EB6 1-747 I223R): T1 sequence (Q96EB6 1-747 V224A) with I223R, A224V
Procedure: as §1

## CCCC[C@H](NC(=O)[C@H](CC(C)C)NC(=O)[C@H](CCCCNC(=O)C(F)(F)F)NC(=O)[C@H](CCCCN)NC(=O)[C@H](Cc1c[nH]cn1)NC(=O)[C@H](CCCNC(=N)N)NC(C)=O)C(=O)N[C@@H](Cc1ccccc1)C(N)=O [TFA-p53 7-mer, Ac-RHK-K^TFA-L-Nle-F-NH2]
full-length hSIRT1 V224A
  IC50: 860 ± 80 nM
full-length hSIRT1 E230Q
  IC50: 860 ± 60 nM
full-length hSIRT1 I223R
  IC50: 660 ± 60 nM
